US9149038B2, “4-amino-6-(heterocyclic)picolinates and 6-amino-2-(heterocyclic)pyrimidine-4-carboxylates and their use as herbicides” (Dow AgroSciences LLC, priority 2013, dated 2015)
Like-named read-outs stand apart in the source and are kept apart here.

Legend:
[1] = system: Key Broadleaf Weed and Crop Species; assay: Post-Emergent Test II: postemergent herbicidal activity, visual rating after 14 d (Table 7); format: in vivo; conditions: post-emergence, 336 h; for pest or weed control at 35 g/ha: 35 g ai/ha; for pest or weed control at 70 g/ha: 70 g ai/ha; for pest or weed control at 140 g/ha: 140 g ai/ha
From the text: (§1) Herbicidal evaluations were made visually on a scale of 0 to 100 where 0 represents no activity and 100 represents complete plant death.
(§2) Seeds or nutlets of the desired test plant species were planted in Sun Gro Metro-Mix® 360 planting mixture, which typically has a pH of 6.0 to 6.8 and an organic matter content of about 30 percent, in plastic pots with a surface area of 64 square centimeters (cm^2). When required to ensure good germination and healthy plants, a fungicide treatment and/or other chemical or physical treatment was applied. The plants were grown for 7-21 d in a greenhouse with an approximate 15 h photoperiod which was maintained at about 23-29° C. during the day and 22-28° C. during the night. Nutrients and water were added on a regular basis and supplemental lighting was provided with overhead metal halide 1000-Watt lamps as necessary. The plants were employed for testing when they reached the first or second true leaf stage.
(§3) A weighed amount, determined by the highest rate to be tested, of each test compound was placed in a 25 mL glass vial and was dissolved in 4 mL of a 97:3 v/v mixture of acetone and DMSO to obtain concentrated stock solutions. […] The concentrated stock solutions obtained were diluted with 20 mL of an aqueous mixture containing acetone, water, isopropyl alcohol, DMSO, Atplus 411F crop oil concentrate, and Triton® X-155 surfactant in a 48.5:39:10:1.5:1.0:0.02 v/v ratio to obtain spray solutions containing the highest application rates. Additional application rates were obtained by serial dilution of 12 mL of the high rate solution into a solution containing 2 mL of a 97:3 v/v mixture of acetone and DMSO and 10 mL of an aqueous mixture containing acetone, water, isopropyl alcohol, DMSO, Atplus 411F crop oil concentrate, and Triton X-155 surfactant in a 48.5:39:10:1.5:1.0:0.02 v/v ratio to obtain ½×, ¼×, ⅛× and 1/16× rates of the high rate. Compound requirements are based upon a 12 mL application volume at a rate of 187 liters per hectare (L/ha). Formulated compounds were applied to the plant material with an overhead Mandel track sprayer equipped with 8002E nozzles calibrated to deliver 187 L/ha over an application area of 0.503 square meters at a spray height of 18 inches (43 cm) above the average plant canopy height. Control plants were sprayed in the same manner with the solvent blank.
(§4) The treated plants and control plants were placed in a greenhouse as described above and watered by subirrigation to prevent wash-off of the test compounds. After 14 d, the condition of the test plants as compared with that of the untreated plants was determined visually and scored on a scale of 0 to 100 percent where 0 corresponds to no injury and 100 corresponds to complete kill and are presented as indicated in Table 4.

[2] = system: Key Grass and Sedge Weeds as well as Grass Crops; assay: Post-Emergent Test II: postemergent herbicidal activity, visual rating after 14 d (Table 8); format: in vivo; conditions: post-emergence, 336 h; for pest or weed control at 35 g/ha: 35 g ai/ha; for pest or weed control at 70 g/ha: 70 g ai/ha; for pest or weed control at 140 g/ha: 140 g ai/ha
From the text: as §1, §2, §3, §4

[3] = lambsquarters (Chenopodium album), read-out: Visual Growth Reduction (%) 14 Days After Application CHEAL
[4] = oilseed rape, canola (Brassica napus), read-out: Visual Growth Reduction (%) 14 Days After Application BRSNN
[5] = redroot pigweed (Amaranthus retroflexus), read-out: Visual Growth Reduction (%) 14 Days After Application AMARE
[6] = sunflower (Helianthus annuus), read-out: Visual Growth Reduction (%) 14 Days After Application HELAN
[7] = velvetleaf (Abutilon theophrasti), read-out: Visual Growth Reduction (%) 14 Days After Application ABUTH
[8] = wild poinsettia (Euphorbia heterophylla), read-out: Visual Growth Reduction (%) 14 Days After Application EPHHL
[9] = giant foxtail (Setaria faberi), read-out: Visual Growth Reduction (%) 14 Days After Application SETFA
[10] = maize, corn (Zea mays), read-out: Visual Growth Reduction (%) 14 Days After Application ZEAMX
[11] = rice (Oryza sativa), read-out: Visual Growth Reduction (%) 14 Days After Application ORYSA
[12] = wheat, spring (Triticum aestivum), read-out: Visual Growth Reduction (%) 14 Days After Application TRZAS
[13] = yellow nutsedge (Cyperus esculentus), read-out: Visual Growth Reduction (%) 14 Days After Application CYPES
[14] = barnyardgrass (Echinochloa crus-galli), read-out: Visual Growth Reduction (%) 14 Days After Application ECHCG

Nc1cc(-c2ccc3c(c2Cl)OC(F)(F)O3)nc(C(=O)O)c1Cl [Compound 34]
95 to 100%: pest or weed control at 70 g/ha [1, 5] | pest or weed control at 140 g/ha [1, 5]
45 to 59%: pest or weed control at 35 g/ha [1, 7] | pest or weed control at 35 g/ha [1, 8] | pest or weed control at 35 g/ha [2, 12]
85 to 94%: pest or weed control at 140 g/ha [1, 4] | pest or weed control at 35 g/ha [1, 5] | pest or weed control at 70 g/ha [1, 6] | pest or weed control at 140 g/ha [1, 6]
60 to 74%: pest or weed control at 70 g/ha [1, 7] | pest or weed control at 70 g/ha [1, 8] | pest or weed control at 140 g/ha [1, 8] | pest or weed control at 35 g/ha [2, 10] | pest or weed control at 70 g/ha [2, 10] | pest or weed control at 140 g/ha [2, 10] | pest or weed control at 70 g/ha [2, 12] | pest or weed control at 140 g/ha [2, 12]
75 to 84%: pest or weed control at 35 g/ha [1, 3] | pest or weed control at 70 g/ha [1, 3] | pest or weed control at 140 g/ha [1, 3] | pest or weed control at 35 g/ha [1, 4] | pest or weed control at 70 g/ha [1, 4] | pest or weed control at 35 g/ha [1, 6] | pest or weed control at 140 g/ha [1, 7] | pest or weed control at 35 g/ha [2, 9] | pest or weed control at 70 g/ha [2, 9] | pest or weed control at 140 g/ha [2, 9]
0 to 29%: pest or weed control at 35 g/ha [2, 11] | pest or weed control at 70 g/ha [2, 11] | pest or weed control at 140 g/ha [2, 11] | pest or weed control at 35 g/ha [2, 13] | pest or weed control at 70 g/ha [2, 13] | pest or weed control at 140 g/ha [2, 13]

Cc1c(-c2cc(N)c(Cl)c(C(=O)O)n2)ccc2c1OC(F)(F)O2 [Compound 36]
0 to 29%: pest or weed control at 35 g/ha [1, 3] | pest or weed control at 35 g/ha [1, 4] | pest or weed control at 35 g/ha [1, 7] | pest or weed control at 70 g/ha [1, 7] | pest or weed control at 140 g/ha [1, 7] | pest or weed control at 35 g/ha [1, 8] | pest or weed control at 70 g/ha [1, 8] | pest or weed control at 140 g/ha [1, 8] | pest or weed control at 35 g/ha [2, 9] | pest or weed control at 35 g/ha [2, 10] | pest or weed control at 70 g/ha [2, 10] | pest or weed control at 140 g/ha [2, 10] | pest or weed control at 35 g/ha [2, 11] | pest or weed control at 70 g/ha [2, 11] | pest or weed control at 140 g/ha [2, 11] | pest or weed control at 35 g/ha [2, 12] | pest or weed control at 70 g/ha [2, 12] | pest or weed control at 140 g/ha [2, 12] | pest or weed control at 35 g/ha [2, 13] | pest or weed control at 70 g/ha [2, 13] | pest or weed control at 140 g/ha [2, 13]
45 to 59%: pest or weed control at 70 g/ha [1, 3] | pest or weed control at 140 g/ha [1, 3] | pest or weed control at 140 g/ha [1, 4] | pest or weed control at 140 g/ha [2, 9]
30 to 44%: pest or weed control at 70 g/ha [1, 4] | pest or weed control at 70 g/ha [2, 9]
75 to 84%: pest or weed control at 35 g/ha [1, 6] | pest or weed control at 70 g/ha [1, 6]
95 to 100%: pest or weed control at 35 g/ha [1, 5] | pest or weed control at 70 g/ha [1, 5] | pest or weed control at 140 g/ha [1, 5]
85 to 94%: pest or weed control at 140 g/ha [1, 6]

COC(=O)c1nc(-c2cc3c(cc2Cl)OC(F)(F)O3)cc(N)c1Cl [Compound 40]
95 to 100%: pest or weed control at 70 g/ha [1, 5] | pest or weed control at 140 g/ha [1, 5]
45 to 59%: pest or weed control at 140 g/ha [2, 10]
0 to 29%: pest or weed control at 35 g/ha [1, 3] | pest or weed control at 70 g/ha [1, 3] | pest or weed control at 140 g/ha [1, 3] | pest or weed control at 35 g/ha [1, 4] | pest or weed control at 70 g/ha [1, 4] | pest or weed control at 140 g/ha [1, 4] | pest or weed control at 35 g/ha [1, 5] | pest or weed control at 35 g/ha [1, 6] | pest or weed control at 70 g/ha [1, 6] | pest or weed control at 140 g/ha [1, 6] | pest or weed control at 35 g/ha [1, 7] | pest or weed control at 70 g/ha [1, 7] | pest or weed control at 140 g/ha [1, 7] | pest or weed control at 35 g/ha [1, 8] | pest or weed control at 70 g/ha [1, 8] | pest or weed control at 140 g/ha [1, 8] | pest or weed control at 35 g/ha [2, 14] | pest or weed control at 70 g/ha [2, 14] | pest or weed control at 140 g/ha [2, 14] | pest or weed control at 35 g/ha [2, 10] | pest or weed control at 70 g/ha [2, 10] | pest or weed control at 35 g/ha [2, 11] | pest or weed control at 70 g/ha [2, 11] | pest or weed control at 140 g/ha [2, 11] | pest or weed control at 35 g/ha [2, 12] | pest or weed control at 70 g/ha [2, 12] | pest or weed control at 140 g/ha [2, 12] | pest or weed control at 35 g/ha [2, 13] | pest or weed control at 70 g/ha [2, 13] | pest or weed control at 140 g/ha [2, 13]
